From patent US20170313674A1, “BENZYLHYDROXIDE DERIVATIVES, PREPARATION THEREOF AND THERAPEUTIC USE THEREOF” (SANOFI, priority 2014, published 2017) come the findings set out here.

Where two headings read alike, the source gives them in different places.

For assay [1], the system named is mitochondrial ATP production on non-small cell lung carcinoma cell lines NCI-H460. Put plainly: Mitochondrial ATP analysis (Cell Titer Glo) in NCI-H460 cells. The format is cell-based. Particulars: 1-hour incubation, with sodium iodoacetate (100 μM), concentration inhibiting 50% of mitochondrial ATP production, read-out: IC50 (mito ATP). The method in brief:
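NCI-H460 cells (1,000/well) treated 24 h after plating for 1 h with compound dose series alone or with 100 μM sodium iodoacetate; oligomycin A (10 μg/ml) and FCCP (30 μM) as controls; Cell Titer Glo luminescence. Mitochondrial ATP = ATP under iodoacetate minus ATP under iodoacetate+oligomycin; IC50 (M).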

In assay [2] the test system is HIF-1a. Kind of assay: Western blot model: HIF1-a stabilization in Hep3b cells under hypoxia. The format is cell-based. Particulars: hypoxia 1% O2, 6 hours; for Western Blot (range of decrease of HIF1-a stabilization): class symbol. As to the method:
Since it was sought to determine the efficacy of the compounds to inhibit HIF1a stabilization under hypoxia, the compounds according to the invention underwent biochemical studies in order to determine their capacity to decrease HIF stabilization in Hep3b cells under hypoxia (western blot model).
Hep3B cells are seeded at a rate of 300000 cells per well in 6-wells culture plate in 2 ml of MEM supplemented with glutamin (2 mM) and 10% FCS (foetal calf serum) and incubated at 37° C. in the presence of 5% CO2. The next day, the cells are placed in contact with the compound and an incubation under hypoxia at 1% O2 is carried out at 37° C. in 95% humidity and 5% CO2 in a sealed anaerobic workstation (Hypoxystation H35-Don Whitley—AES Chemunex) during 6 hours.
Cells were washed (PBS) and lysed in SDS sample buffer. Proteins (25 μg) were separated on 4-12% Bis-Tris gels and transferred onto polyvinylidene difluoride membranes (Millipore). Membranes were blotted with a mouse monoclonal antibody to HIF-1a (BD transduction) and a mouse monoclonal anti-βactin (Sigma). Immunoreactive bands were detected with a horse radish peroxydase (HRP) anti-mouse antibody (Sigma) by enhanced chemiluminescence (Promega).
The inhibitory activity of the compounds for their capacity to decrease HIF1-a stabilization in Hep3b under hypoxia is expressed as range of percentage relative to control with: […]

`COc1ccc(C(O)C(C)Oc2ccc(-c3csc(-c4ccc(OC(C)C(O)c5ccc(OC)c(OC)c5)cc4)n3)cc2)cc1OC` (single isomer, unassigned) [Compound I-33, 1-(3,4-dimethoxyphenyl)-2-[4-[2-[4-[2-(3,4-dimethoxyphenyl)-2-hydroxy-1-methyl-ethoxy]phenyl]thiazol-4-yl]phenoxy]propan-1-ol]: the IC50 (usually the concentration that gives 50% inhibition) in assay [1] amounted to 30.1 nM. In addition, in assay [2], the “Western Blot (decrease of HIF1-a stabilization, percentage relative to control)” value is recorded as 52% and the “Western Blot (range of decrease of HIF1-a stabilization)” value is listed as “* (* represents a decrease of HIF-a stabilization between 30 to 50%)”.

`COc1ccc(C(O)C(C)(C)Oc2ccc(-c3noc(-c4ccc(OC(C)(C)C(O)c5ccc(OC)c(OC)c5)cc4)n3)cc2)cc1OC` (single isomer, unassigned) [Compound I-37, 1-(3,4-dimethoxyphenyl)-2-[4-[5-[4-[2-(3,4-dimethoxyphenyl)-2-hydroxy-1,1-dimethyl-ethoxy]phenyl]-1,2,4-oxadiazol-3-yl]phenoxy]-2-methyl-propan-1-ol]: the half-maximal inhibitory concentration (IC50) in assay [1] (Homo sapiens, NCI-H460, 1 h) came out at 94.3 nM. In assay [2], the “Western Blot (decrease of HIF1-a stabilization, percentage relative to control)” value stood at 74% and the “Western Blot (range of decrease of HIF1-a stabilization)” value is reported as “*** (*** represents a decrease of HIF-a stabilization higher than 70%)”.

Consider `COc1ccc(C(O)C(C)(C)Oc2ccc(-c3nsc(-c4ccc(OC(C)(C)C(O)c5ccc(OC)c(OC)c5)cc4)n3)cc2)cc1OC` (single isomer, unassigned) [Compound I-43, 1-(3,4-dimethoxyphenyl)-2-[4-[5-[4-[2-(3,4-dimethoxyphenyl)-2-hydroxy-1,1-dimethyl-ethoxy]phenyl]-1,2,4-thiadiazol-3-yl]phenoxy]-2-methyl-propan-1-ol], for which, in assay [1] (Homo sapiens, NCI-H460, 1 h), the IC50 was determined as 37 nM. Moreover, in assay [2], the “Western Blot (decrease of HIF1-a stabilization, percentage relative to control)” value is given as 32% and the “Western Blot (range of decrease of HIF1-a stabilization)” value is on record as “* (* represents a decrease of HIF-a stabilization between 30 to 50%)”.

For the molecule `COc1ccc(C(O)C(C)(C)Oc2ccc(-c3nsc(-c4ccc(OC(C)(C)C(O)c5ccc(OC)c(OC)c5)cc4)n3)cc2)cc1OC` (single isomer, unassigned) [Compound I-44, 1-(3,4-dimethoxyphenyl)-2-[4-[5-[4-[2-(3,4-dimethoxyphenyl)-2-hydroxy-1,1-dimethyl-ethoxy]phenyl]-1,2,4-thiadiazol-3-yl]phenoxy]-2-methyl-propan-1-ol], the concentration for half-maximal inhibition (IC50) in assay [1] was 54.4 nM. Moreover, in assay [2], the “Western Blot (decrease of HIF1-a stabilization, percentage relative to control)” value is 45% and the “Western Blot (range of decrease of HIF1-a stabilization)” value was “* (* represents a decrease of HIF-a stabilization between 30 to 50%)”.

For the molecule `COc1ccc(C(O)COc2ccc(-c3noc(-c4ccc(OCC(O)c5ccc(OC)c(OC)c5)cc4)n3)cc2)cc1OC` (single isomer, unassigned) [Compound I-47, 1-(3,4-dimethoxyphenyl)-2-[4-[5-[4-[2-(3,4-dimethoxyphenyl)-2-hydroxy-ethoxy]phenyl]-1,2,4-oxadiazol-3-yl]phenoxy]ethanol], the IC50 in assay [1] (Homo sapiens, NCI-H460, 1 h) was more than 10000 nM. In assay [2], the “Western Blot (decrease of HIF1-a stabilization, percentage relative to control)” value is listed as 51% and the “Western Blot (range of decrease of HIF1-a stabilization)” value is on record as “** (** represents a decrease of HIF-a stabilization between 50 to 70%)”.

For the molecule `COc1ccc(C(O)COc2ccc(-c3noc(-c4ccc(OCC(O)c5ccc(OC)c(OC)c5)cc4)n3)cc2)cc1OC` (single isomer, unassigned) [Compound I-48, 1-(3,4-dimethoxyphenyl)-2-[4-[5-[4-[2-(3,4-dimethoxyphenyl)-2-hydroxy-ethoxy]phenyl]-1,2,4-oxadiazol-3-yl]phenoxy]ethanol], the 50% inhibitory concentration (IC50) in assay [1] is more than 10000 nM. Also, in assay [2], the “Western Blot (decrease of HIF1-a stabilization, percentage relative to control)” value turned out to be 87% and the “Western Blot (range of decrease of HIF1-a stabilization)” value was “*** (*** represents a decrease of HIF-a stabilization higher than 70%)”.

For the molecule `COc1ccc(C(O)C(C)(C)Oc2ccc(-c3c[nH]c(-c4ccc(OC(C)(C)C(O)c5ccc(OC)c(OC)c5)cc4)n3)cc2)cc1OC` (single isomer, unassigned) [Compound I-55, 1-(3,4-dimethoxyphenyl)-2-[4-[2-[4-[2-(3,4-dimethoxyphenyl)-2-hydroxy-1,1-dimethyl-ethoxy]phenyl]-1H-imidazol-4-yl]phenoxy]-2-methyl-propan-1-ol], in assay [1] (Homo sapiens, NCI-H460, 1 h), the IC50 is 435 nM. Further, in assay [2], the “Western Blot (decrease of HIF1-a stabilization, percentage relative to control)” value is on record as 62% and the “Western Blot (range of decrease of HIF1-a stabilization)” value was “** (** represents a decrease of HIF-a stabilization between 50 to 70%)”.

As to `COc1ccc(C(O)C(C)(C)Oc2ccc(-c3c[nH]c(-c4ccc(OC(C)(C)C(O)c5ccc(OC)c(OC)c5)cc4)n3)cc2)cc1OC` (single isomer, unassigned) [Compound I-56, 1-(3,4-dimethoxyphenyl)-2-[4-[2-[4-[2-(3,4-dimethoxyphenyl)-2-hydroxy-1,1-dimethyl-ethoxy]phenyl]-1H-imidazol-4-yl]phenoxy]-2-methyl-propan-1-ol], the 50% inhibitory concentration (IC50) in assay [1] was found to be 760 nM. Besides, in assay [2], the “Western Blot (decrease of HIF1-a stabilization, percentage relative to control)” value was found to be 75% and the “Western Blot (range of decrease of HIF1-a stabilization)” value is reported as “*** (*** represents a decrease of HIF-a stabilization higher than 70%)”.

Turning to `COc1ccc(C(O)COc2ccc(-c3csc(-c4ccc(OCC(O)c5ccc(OC)c(OC)c5)cc4)n3)cc2)cc1OC` (single isomer, unassigned) [Compound I-61, 1-(3,4-dimethoxyphenyl)-2-[4-[2-[4-[2-(3,4-dimethoxyphenyl)-2-hydroxy-ethoxy]phenyl]thiazol-4-yl]phenoxy]ethanol], in assay [1], the IC50 is 326 nM. For the same molecule, in assay [2], the “Western Blot (decrease of HIF1-a stabilization, percentage relative to control)” value is 46% and the “Western Blot (range of decrease of HIF1-a stabilization)” value is reported as “* (* represents a decrease of HIF-a stabilization between 30 to 50%)”.

As to `COc1ccc(C(O)COc2ccc(-c3csc(-c4ccc(OCC(O)c5ccc(OC)c(OC)c5)cc4)n3)cc2)cc1OC` (single isomer, unassigned) [Compound I-62, 1-(3,4-dimethoxyphenyl)-2-[4-[2-[4-[2-(3,4-dimethoxyphenyl)-2-hydroxy-ethoxy]phenyl]thiazol-4-yl]phenoxy]ethanol], the IC50 in assay [1] was 492 nM. Besides, in assay [2], the “Western Blot (decrease of HIF1-a stabilization, percentage relative to control)” value is recorded as 43% and the “Western Blot (range of decrease of HIF1-a stabilization)” value is recorded as “* (* represents a decrease of HIF-a stabilization between 30 to 50%)”.

For `COc1ccc(C(O)COc2ccc(-c3csc(-c4ccc(OC(C)(C)C(O)c5ccc(OC)c(OC)c5)cc4)n3)cc2)cc1OC` (single isomer, unassigned) [Compound I-65, 1-(3,4-dimethoxyphenyl)-2-[4-[4-[4-[2-(3,4-dimethoxyphenyl)-2-hydroxy-ethoxy]phenyl]thiazol-2-yl]phenoxy]-2-methyl-propan-1-ol], in assay [1] (Homo sapiens, NCI-H460, 1 h), the half-maximal inhibitory concentration (IC50) came out at 23.8 nM. In assay [2], the “Western Blot (decrease of HIF1-a stabilization, percentage relative to control)” value is 41% and the “Western Blot (range of decrease of HIF1-a stabilization)” value is “* (* represents a decrease of HIF-a stabilization between 30 to 50%)”.

For `COc1ccc(C(O)COc2ccc(-c3csc(-c4ccc(OC(C)(C)C(O)c5ccc(OC)c(OC)c5)cc4)n3)cc2)cc1OC` (single isomer, unassigned) [Compound I-66, 1-(3,4-dimethoxyphenyl)-2-[4-[4-[4-[2-(3,4-dimethoxyphenyl)-2-hydroxy-ethoxy]phenyl]thiazol-2-yl]phenoxy]-2-methyl-propan-1-ol], the half-inhibitory concentration (IC50) in assay [1] turned out to be 26.5 nM. Further, in assay [2], the “Western Blot (decrease of HIF1-a stabilization, percentage relative to control)” value is recorded as 54% and the “Western Blot (range of decrease of HIF1-a stabilization)” value is “** (** represents a decrease of HIF-a stabilization between 50 to 70%)”.
